In ChEMBL document CHEMBL4017463, “Practical application of 3-substituted-2,6-difluoropyridines in drug discovery: Facile synthesis of novel protein kinase C theta inhibitors” (Bioorg Med Chem Lett, 2017):

Molecular target: Protein kinase C theta type (Homo sapiens, UniProt Q04759)
Assay: Inhibition of N-terminal FLAG-tagged PKCtheta (unknown origin) expressed in baculovirus expression system using fluorescein-PKC as substrate preincubated for 5 mins followed by substrate addition measured after 60 mins in presence of ATP by Lathascreen TR-FRET assay

Sequence of Protein kinase C theta type (Q04759 whole entry): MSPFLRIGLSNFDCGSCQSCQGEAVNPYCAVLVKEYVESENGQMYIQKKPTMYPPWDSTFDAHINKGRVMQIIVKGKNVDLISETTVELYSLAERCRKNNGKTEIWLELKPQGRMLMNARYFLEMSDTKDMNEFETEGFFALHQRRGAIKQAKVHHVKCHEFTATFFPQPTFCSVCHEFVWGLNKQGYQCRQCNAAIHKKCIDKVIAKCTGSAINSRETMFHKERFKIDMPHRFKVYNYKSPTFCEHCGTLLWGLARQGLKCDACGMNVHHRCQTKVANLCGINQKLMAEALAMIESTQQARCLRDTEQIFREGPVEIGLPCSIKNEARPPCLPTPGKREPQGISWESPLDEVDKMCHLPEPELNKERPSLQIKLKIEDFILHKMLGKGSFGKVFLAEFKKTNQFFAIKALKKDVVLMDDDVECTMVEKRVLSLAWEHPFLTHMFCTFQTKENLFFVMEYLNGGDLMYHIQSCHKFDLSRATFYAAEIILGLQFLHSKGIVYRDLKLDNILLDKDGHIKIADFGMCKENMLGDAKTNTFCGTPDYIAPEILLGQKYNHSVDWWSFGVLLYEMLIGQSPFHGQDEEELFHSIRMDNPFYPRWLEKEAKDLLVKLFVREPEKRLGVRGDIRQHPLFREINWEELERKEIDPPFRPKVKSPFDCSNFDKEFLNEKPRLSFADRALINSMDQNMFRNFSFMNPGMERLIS

IC50 [nM]	SMILES
100	O=c1[nH]c2ncccc2n1-c1nc(N2CCCNCC2)ccc1F
18	O=c1[nH]c2ncccc2n1-c1nc(N2CCCNCC2)ccc1Cl
0.086	CCOc1ccnc2[nH]c(=O)n(-c3nc(N4CCCNCC4)ccc3Cl)c12
> 1000	O=c1[nH]c2ncccc2n1-c1nc(N2CCCC(C(O)C3CC3)C2)ccc1F (stereo unspecified)
0.87	CN1CCCCOc2ccnc3[nH]c(=O)n(c23)-c2nc1ccc2Cl
6.7	CN1CCCOc2ccnc3[nH]c(=O)n(c23)-c2nc1ccc2Cl
14	O=c1[nH]c2nccc3c2n1-c1nc(ccc1Cl)OCCCCO3
250	CC(C)CC1CCCN1c1ccc(F)c(-n2c(=O)[nH]c3ncccc32)n1 (racemic)
0.18	CC(C)(C)OC(=O)N1CCN(c2ccc([N+](=O)[O-])c(-n3c(=O)[nH]c4ncccc43)n2)C(c2ccccc2)C1 (racemic)
6.3	N#Cc1ccc(N2CCNCC2c2ccccc2)nc1-n1c(=O)[nH]c2ncccc21 (racemic)
33	COc1ccnc2[nH]c(=O)n(-c3nc(N4CCNC(c5ccccc5)C4)ccc3Cl)c12 (racemic)
